Laboratory results as given in patent EP4129284B1, “SERTACONAZOL FOR PROVIDING A SPORISTATIC AND/OR SPORICIDAL EFFECT” (Dr. Pfleger Arzneimittel GmbH, priority 2021, dated 2023).

The molecules below were run on S. brevicaulis (assay: Full skin model infected with spores, treatment, histology (PAS-staining)). Conditions: 48 h and 72 h, sertaconazol 100, ciclopiroxolamin 400, terbinafin 100 µg/mL, Fig. 6, stated as 'the same applies' as for E. floccosum.
Assay type: cell-based, Scopulariopsis brevicaulis
Source text: For an application in vivo, there is the additional requirement for the antimycotic substances to evoke a targeted antimycotic activity in the presence of human cells. Thus, 3D-cell-cultures such as full skin models are used to simulate the in vivo conditions. Such full skin models are for example described in Reddersen K, Wiegand C, Elsner P, Hipler UC. Three-dimensional human skin model infected with Staphylococcus aureus as a tool for evaluation of bioactivity and biocompatibility of antiseptics. Int J Antimicrob Agents. 2019; 54(3):283-291; Wiegand C, Fink S, Beier O, Horn K, Pfuch A, Schimanski A, Grünler B, Hipler UC, Elsner P. Dose- and Time-Dependent Cellular Effects of Cold Atmospheric Pressure Plasma Evaluated in 3D Skin Models. Skin Pharmacol Physiol. 2016;29(5):257-265. Particularly, such full skin models are made of a collagen matrix, which is colonized with primary human fibroblasts, and a fully differentiated epidermis made of primary human keratinocytes. For the experiments, the model is infected in vitro with spores, such that a determination of the sporistatic or sporicidal influence of the substances to be examined at in vivo relevant conditions is allowed. Compared to a 2D-model, the 3D full skin model has the advantage that the cells are in their natural three-dimensional surrounding and show a corresponding behaviour. Such, the antimycotic and sporistatic or sporicidal effects can be examined in situ and in the presence of human cells.
The spore suspensions and the solutions of sertaconazol, ciclopiroxolamin and terbinafin were prepared as in Example 1, wherein the respective test concentrations were obtained by diluting these solutions in ultrapure water (WFI; Fresenius Kabi) instead of SGB (Merck). Full skin models were produced as previously described [Reddersen K, Wiegand C, Elsner P, Hipler UC. […] 2019; 54(3):283-291; Wiegand C, Fink S, Beier O, Horn K, Pfuch A, Schimanski A, Grünler B, Hipler UC, Elsner P. Dose- and Time-Dependent Cellular Effects of Cold Atmospheric Pressure Plasma Evaluated in 3D Skin Models. […]

For Cc1cc(C2CCCCC2)n(O)c(=O)c1 [Ciclopiroxolamin, ciclopiroxolamin], which “outgrowth of S. brevicaulis” value is on record?
Its value is “only reduced”.

How did the “outgrowth of S. brevicaulis” value turn out when Clc1ccc(C(Cn2ccnc2)OCc2csc3c(Cl)cccc23)c(Cl)c1 (stereo not drawn) [Sertaconazol, sertaconazol] was run?
The value was “inhibited”.

Which “outgrowth of S. brevicaulis” value does the source give for CN(C/C=C/C#CC(C)(C)C)Cc1cccc2ccccc12 [Terbinafin, terbinafin] here?
The value was “only reduced”.
